Read-outs that look alike come from different tables or passages of the source.

The subject of this assay is Herpes simplex. It is filed as in vivo, human. Here is the method: The method of the invention has been carried out with respect to a number of skin disorders. The patients were treated with one of two peptides, each at a concentration of 50 μg/gr cream (unless otherwise indicated):
The cream was manufactured by Amiga LTD, Israel, and contains the following components:
5. A person suffered for many years from Herpes simplex on the neck, with no relief from commercial remedies. ZEP3 was applied topically once a day to the lesions. • Results: relief in itching and skin rash within 10-20 min.
6. person two was diagnosed with Herpes simplex.
7. person one was diagnosed with Herpes simplex.
8. person four suffered from Herpes simplex from childhood.
9. A person suffered from Herpes simplex lesions on the lips and face. […] 1-2 applications cause the lesions to disappear.
10. A person suffered from Herpes simplex on the lips, mainly when under pressure. […] The blisters disappeared after 24 hours.
11. A person suffered from Herpes simplex on the lips. ZEP3 (500 μg/gr cream) was topically applied several times during the day on the wound. • Results: the person felt relief after several minutes. The itching and redness lessened immediately and the wound disappeared after 36 hours.
12. 7 subjects suffering from Herpes simplex were treated with ZEP3.
13. A person suffered from Herpes simplex lesions on the lips.
14. A person has a festering Herpes simplex lesion. Generally, 10 days are required for recuperation.
15. A person suffered intermittingly from Herpes simplex on the lips, with blisters.

Where [1] appears, read: person, lesions on lips and face, 50 μg/gr cream.
Where [2] appears, read: person, lips, 500 μg/gr cream several times a day.
Setting [3] is: person, neck, 50 μg/gr cream once a day.

On to pGLU-ASN-TRP-LYS-C8 [ZEP3], for which the clinical outcome (7 subjects, 50 μg/gr cream) was “found to be therapeutic”; the clinical outcome under setting [1] is “the lesions now appear only infrequently”; the clinical outcome (person, lips with blisters, 500 μg/gr cream as needed) was “immediate relief; the blisters stopped developing and disappeared after several hours”; the clinical outcome under setting [2] was “felt relief after several minutes. The itching and redness lessened immediately”; the clinical outcome under setting [3] was “The lesions disappeared and did not return during the last 5 years”; the clinical outcome (person, pricking sensation on upper lip, 500 μg/gr cream as needed) was “the pricking sensation ceased and Herpes lesions did not develop”. Moreover, under “person four, 50 μg/gr cream several times”, the “clinical outcome as compared to treatment with Zovirax®” value was “Rapid drying of the lesion, shrinking of swelling and swift conclusion of the outbreak”. The recuperation period entry (person, festering lesion, generally 10 days required, 500 μg/gr cream as needed) is on record as “shortened by half”. For the same substance, the “number of applications that cause the lesions to disappear” value under setting [1] is 1-2 applications. In addition, the “time until wound disappeared” value under setting [2] was found to be 36 h. Under setting [3], the “time to relief in itching and skin rash” value lay in the range of 10 to 20 min.

The record behind these values is patent publication US9012397B2 (priority 2011, dated 2015).
